Assay results published in patent publication US9499493B2, “2,4-pyrimidinediamine compounds and their uses” (Rigel Pharmaceuticals, Inc., priority 2002, dated 2016).
pIC50: −log10 of the molar value.

How the values were obtained:
[1] = system: cultured human mast cells (CHMC); assay: CHMC low cell density IgE activation: tryptase assay; assay type: cell-based; settings: anti-IgE
How it was run: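 Degranulation is read as supernatant tryptase activity, using tryptase substrate incubated 30 min at room temperature. Before this, CHMC at low density (1000-1500 cells/well) rest 1 hr at 37° C and are triggered with anti-IgE for 30 min at 37° C.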

[2] = system: cultured human mast cells (CHMC); assay: CHMC low cell density ionomycin activation: tryptase assay; assay type: cell-based

| SMILES | pIC50 [1] | pIC50 [2] |
| --- | --- | --- |
| CCOC(=O)C(C)(C)c1ccc(Nc2ncc(F)c(Nc3cccc(O)c3)n2)cc1 [R935152, N2-[4-[(1-Ethoxycarbonyl-1-methyl)ethyl]phenyl]-5-fluoro-N4-(3-hydroxyphenyl)-2,4-pyrimidinediamine] | 6.30 | 5.03 |
| Fc1cnc(Nc2ccc3c(c2)OCCCO3)nc1Nc1ccc2c(c1)OCCCO2 [R935162, N2,N4-Bis(3,4-propylenedioxyphenyl)-5-fluoro-2,4-pyrimidinediamine] | 6.57 | < 5.00 |
| Fc1ccc(Nc2ccnc(Nc3ccc(F)c(Cl)c3)n2)cc1Cl [R935163, N2,N4-Bis(3-chloro-4-fluoropheny)-2,4-pyrimidinediamine] | < 5.00 | < 5.00 |
| COC(=O)c1cc(Nc2ncc(F)c(Nc3ccc(OC(C)C)cc3)n2)cn1C [R935164, 5-Fluoro-N4-(4-isopropoxyphenyl)-N2-[(N-methyl-2-methoxycarbonyl)pyrrol-4-yl]-2,4-pyrimidinediamine] | 6.69 | < 5.00 |
| CCOC(=O)C(C)(C)c1ccc(Nc2nc(Nc3cccc(O)c3)ncc2F)cc1 [R935169, N4-[4-[(1-Ethoxycarbonyl-1-methyl)ethyl]phenyl]-5-fluoro-N2-(3-hydroxyphenyl)-2,4-pyrimidinediamine] | 6.00 | 5.10 |
| CC(C)(CO)c1ccc(Nc2nc(Nc3ccc4c(c3)OCCO4)ncc2F)cc1 [R935173, N2-(3,4-Ethylenedioxyphenyl)-5-fluoro-N4-[4-(2-hydroxy-1,1-dimethylethyl)phenyl]-2,4-pyrimidinediamine] | 6.34 | < 5.00 |
| OCC(O)COc1ccc(Nc2ncc(F)c(Nc3ccc4c(c3)OCCO4)n2)cc1 (stereo not drawn) [R935179, N2-[4-(2,3-Dihydroxypropoxy)phenyl]-N4-(3,4-ethylenedioxypheny)-5-fluoro-2,4-pyrimidinediamine] | 6.25 | < 5.00 |
| COC(=O)COc1cccc(Nc2ncc(F)c(Nc3ccc4c(c3)OCCCO4)n2)c1 [R935185, 5-Fluoro-N2-[3-(methoxycarbonylmethyleneoxy)phenyl]-N4-(3,4-propylenedioxyphenyl)-2,4-pyrimidinediamine] | 6.45 | 5.18 |
| OCCOc1ccc(Nc2ncc(F)c(Nc3ccc4c(c3)OCCCO4)n2)cc1 [R935186, 5-Fluoro-N2-[4-(2-hydroxyethoxy)phenyl]-N4-(3,4-propylenedioxyphenyl)-2,4-pyrimidinediamine] | 6.68 | < 5.00 |
| CCOC(=O)C(C)(Oc1cccc(Nc2nc(Nc3ccc(OC(C)C)cc3)ncc2F)c1)C(=O)OCC [R935187, N4-[3-(1-Bis(ethoxycarbonyl)ethoxy)phenyl]-5-fluoro-N2-[4-isopropoxyphenyl)-2,4-pyrimidinediamine] | 5.04 | < 5.00 |
| Fc1cnc(Nc2ccc3cn[nH]c3c2)nc1Nc1ccc2cn[nH]c2c1 [R935188, N2,N4-Bis(indazolin-6-yl)-5-fluoro-2,4-pyrimidinediamine] | 6.62 | < 5.00 |
| Fc1cnc(Nc2ccc3[nH]ncc3c2)nc1Nc1ccc2[nH]ncc2c1 [R935189, N2,N4-Bis(indazolin-5-yl)-5-fluoro-2,4-pyrimidinediamine] | 6.21 | < 5.00 |
| Fc1cnc(Nc2ccc3cn[nH]c3c2)nc1Nc1ccc2c(c1)OCCO2 [R935190, N4-(3,4-Ethylenedioxyphenyl)-5-fluoro-N2-(indazolin-6-yl)-2,4-pyrimidinediamine] | 6.81 | < 5.00 |
| Fc1cnc(Nc2ccc3[nH]ncc3c2)nc1Nc1ccc2c(c1)OCCO2 [R935198, N4-(3,4-Ethylenedioxyphenyl)-5-fluoro-N2-(indazoline-5-yl)-2,4-pyrimidinediamine] | 6.90 | < 5.00 |
| CNC(=O)COc1cccc(Nc2ncc(F)c(Nc3ccc4c(c3)OCCCO4)n2)c1 [R935202, 5-Fluoro-N2-[3-(N-methylamino)carbonylmethyleneoxyphenyl]-N4-(3,4-propylenedioxyphenyl)-2,4-pyrimidinediamine] | 6.74 | 5.01 |
| CC(C)Oc1ccc(Nc2ncc(F)c(Nc3ccc4c(cnn4C)c3)n2)cc1 [R935203, 5-Fluoro-N2-(4-isopropoxyphenyl)-N4-(1-methyl-indazoline-5-yl)-2,4-pyrimidinediamine] | 6.25 | < 5.00 |
| CNC(=O)Cn1ncc2ccc(Nc3ncc(F)c(Nc4ccc5cnn(CC(=O)NC)c5c4)n3)cc21 [R935206, N2,N4-Bis[1-(N-methylaminocarbonyl)methyl-indazoline-6-yl]-5-fluoro-2,4-pyrimidinediamine] | 5.33 | < 5.00 |
| COC(=O)c1cc(COc2cccc(Nc3ncc(F)c(Nc4ccc5c(c4)OCCO5)n3)c2)co1 [R935207, N4-(3,4-ethylenedioxyphenyl)-5-fluoro-N2-[3-(2-methoxycarbonyl-fur-4-yl)methyleneoxyphenyl]-2,4-pyrimidinediamine] | < 5.00 | < 5.00 |
| COC(=O)Cn1ncc2ccc(Nc3ncc(F)c(Nc4ccc5c(c4)OCCO5)n3)cc21 [R935208, N4-(3,4-ethylenedioxyphenyl)-5-fluoro-N2-[1-(methoxycarbonyl)methyl-indazoline-6-yl]-2,4-pyrimidinediamine] | 5.89 | < 5.00 |
| COC(=O)COc1ccc(Nc2ncc(F)c(Nc3ccc4c(cnn4C)c3)n2)cc1 [R935209, 5-Fluoro-N2-[4-(methoxycarbonylmethyleneoxy)phenyl]-N4-(1-methyl-indazoline-5-yl)-2,4-pyrimidinediamine] | 6.28 | 5.99 |
| COC(=O)Cn1ncc2cc(Nc3ncc(F)c(Nc4ccc5c(cnn5CC(=O)OC)c4)n3)ccc21 [R935211, N2,N4-Bis[1-(methoxycarbonyl)methyl-indazoline-5-yl]-5-fluoro-2,4-pyrimidinediamine] | 5.91 | < 5.00 |

Results, then the compound that gave them:

| pIC50 [1] | pIC50 [2] | SMILES |
| --- | --- | --- |
| 5.72 | 5.01 | CCOC(=O)C(C)(C)c1ccc(Nc2ncc(F)c(Nc3ccc(OC(C)C)cc3)n2)cc1 [R935150, N2-[4-[(1-Ethoxycarbonyl-1-methyl)ethyl]phenyl]-5-fluoro-N4-(4-isopropoxyphenyl)-2,4-pyrimidinediamine] |
| 6.59 | 5.33 | CCOC(=O)C(C)(C)c1ccc(Nc2nc(Nc3ccc(OCC(=O)OC)cc3)ncc2F)cc1 [R935157, N4-[4-[(1-Ethoxycarbonyl-1-methyl)ethyl]phenyl]-5-fluoro-N2-(4-methoxycarbonylmethyleneoxyphenyl)-2,4-pyrimidinediamine] |
| 6.63 | 5.38 | COC(=O)COc1ccc(Nc2ncc(F)c(Nc3ccc(OC(C)C)cc3)n2)cc1 [R935159, 5-Fluoro-N4-(4-isopropoxyphenyl)-N2-(4-methoxycarbonylmethyleneoxyphenyl)-2,4-pyrimidinediamine] |
| 6.25 | < 5.00 | COC(=O)c1cc(Nc2nc(Nc3ccc4c(c3)OCCO4)ncc2F)cn1C [R935166, N2-(3,4-Ethylenedioxyphenyl)-5-fluoro-N4-[(N-methyl-2-methoxycarbonyl)pyrrol-4-yl]-2,4-pyrimidinediamine] |
| 5.67 | < 5.00 | CCOC(=O)C(C)(C)c1ccc(Nc2nc(Nc3ccc(OC(C)C)cc3)ncc2F)cc1 [R935167, N4-[4-[(1-Ethoxycarbonyl-1-methyl)ethyl]phenyl]-5-fluoro-N2-(4-isopropoxyphenyl)-2,4-pyrimidinediamine] |
| 6.27 | < 5.00 | CC(C)(CO)c1ccc(Nc2ncc(F)c(Nc3cccc(O)c3)n2)cc1 [R935171, 5-Fluoro-N2-[4-(2-hydroxy-1,1-dimethylethyl)phenyl]-N4-(3-hydroxyphenyl)-2,4-pyrimidinediamine] |
| 5.86 | 5.17 | CCOC(=O)C(C)(C)c1ccc(Nc2nc(Nc3ccc4c(c3)OCCO4)ncc2F)cc1 [R935172] |
| 6.05 | < 5.00 | CC(C)(CO)c1ccc(Nc2ncc(F)c(Nc3ccc4oc(CO)cc4c3)n2)cc1 [R935177, 5-Fluoro-N2-[4-(2-hydroxy-1,1,dimethylethyl)phenyl]-N4-(2-hydroxymethylbenzofur-5-yl)-2,4-pyrimidinediamine] |
| 6.91 | 5.61 | COC(=O)COc1ccc(Nc2ncc(F)c(Nc3ccc4c(c3)OCCCO4)n2)cc1 [R935182, 5-Fluoro-N2-[4-(methoxycarbonylmethyleneoxy)phenyl]-N4-(3,4-propylenedioxyphenyl)-2,4-pyrimidinediamine] |
| 6.14 | < 5.00 | OCCOc1ccc(Nc2ncc(F)c(Nc3ccc4c(c3)OCCCO4)n2)cc1 [R935183, 5-Fluoro-N2-[4-(2-hydroxyethoxy)phenyl]-N4-(3,4-propylenedioxyphenyl)-2,4-pyrimidinediamine] |
| 6.22 | < 5.00 | CNC(=O)COc1ccc(Nc2ncc(F)c(Nc3ccc4c(c3)OCCCO4)n2)cc1 [R935184, 5-Fluoro-N2-[4-(N-methylamino)carbonylmethyleneoxyphenyl]-N4-(3,4-propylenedioxyphenyl)-2,4-pyrimidinediamine] |
| 6.47 | < 5.00 | Cn1ncc2cc(Nc3ncc(F)c(Nc4ccc5c(cnn5C)c4)n3)ccc21 [R935192, N2,N4-Bis(1-methyl-indazolin-5-yl)-5-fluoro-2,4-pyrimidinediamine] |
| 6.76 | < 5.00 | CC(C)Oc1ccc(Nc2nc(Nc3ccc4[nH]ncc4c3)ncc2F)cc1 [R935197, 5-Fluoro-N2-(indazoline-5-yl)-N4-(4-isopropoxyphenyl)-2,4-pyrimidinediamine] |
| 6.26 | < 5.00 | Cn1ncc2cc(Nc3nc(Nc4cccc(O)c4)ncc3F)ccc21 [R935204, 5-Fluoro-N2-(3-hydroxyphenyl)-N4-(1-methyl-indazoline-5-yl)-2,4-pyrimidinediamine] |
| 5.53 | < 5.00 | COC(=O)Cn1ncc2ccc(Nc3ncc(F)c(Nc4ccc5cnn(CC(=O)OC)c5c4)n3)cc21 [R935205, N2,N4-Bis[1-(methoxycarbonyl)methyl-indazoline-6-yl]-5-fluoro-2,4-pyrimidinediamine] |
